These results are taken from US20040244713A1, “Method for treating animals or masses of water with compositions comprising quinone compounds” (priority 2003, published 2004).

Data set [1] deals with Eimeria tenella. The data set can be described thus: Coccid infection in chicken, Eimeria tenella. Format: in vivo. To be noted: chickens (Ross males), 250 ppm of MPB in feed, inoculated orally with 50,000 oocysts; fecal count 16 hours before killing; n=6. The procedure: (§1) The effect of a preparation comprising menadione dimethylpirymidinol bisulfite (MPB) on coccid infection in chicken was assessed.
(§2) Composition of the preparation (per Kg of final preparation):
(§3) MPB coated with vegetable hydrogenated fatty acids (1:1 inclusion ratio) 500 g,
(§4) This preparation was added in the amount of 1 Kg per ton of feed, so that the final concentration of MPB was equal to 250 ppm of MPB (equivalent to approximately 109 ppm of menadione). Since a chicken eats on average 70-80 grams of feed per day, the daily dose of MPB was equal to approximately 17-20 mg/animal per day.
(§5) The chickens (Ross males) were raised in individual cages for four weeks with a commercial feed in comparison with the same feed integrated with said preparation at the dose of 1 Kg/ton.
(§6) At the end of the third week, the chickens were weighed and divided into uniform weight groups within each treatment and were orally inoculated (1 ml) respectively with 50,000 oocysts of Eimeria tenella or 100,000 oocysts of E. acervulina. The fecal count of the oocysts was performed (method described in Hodgson J. N. 1970, Exp. Parasitol. 28:99-102) 16 hours before killing the animals.
(§7) The coccidiostatic effect is confirmed by the score of the lesions six days after inoculation (method described by Johson J. et Al. 1970, Exp. Parasitol. 28:30-36).

In data set [2] the test system is Artemia Salina. The data set can be described thus: Toxicity test LC50 on Artemia Salina. To be noted: in vivo.
Source text: (§8) The table below lists the results of the toxicity tests performed on fish fauna and on some phyto- and zooplankton species considered among the possible targets of the claimed method.
Data set [3] in a line: Hydrolysis test performed in darkness. Format: physicochemical.
For data set [4], the system named is Eurytemora Affinis. The data set can be described thus: Toxicity test LC50 on Eurytemora Affinis. The settings on record: in vivo.
Source text: as §8
Data set [5] in a line: Photodegradability in sunlight and UV light. The class given is physicochemical. The settings on record: 10-ppm solution in drinking water (pH 6.5-7.5). The procedure: In a fully similar manner, the same behaviour is confirmed if one assesses the photodegradability in sunlight and UV light (the radiation test was performed on a 10-ppm solution in drinking water (pH 6.5-7.5)

A short description of data set [6]: Biodegradability OECD 301 A (92/69/EEC C4-A). The class given is physicochemical. An excerpt:
The degradability of a substance is normally a factor that is impossible to predict on a structural basis. […] On the basis of the available data related to the compounds that are chemically more similar to the derivatives of menadione described here, one could have expected a degradability comprised between the 0% (percentage calculated on the initial mass of product expressed as mg/l) of menadione (2-methyl-1,4-naphthalenedione) and the 17% (assessed after 28 days) of menadione sodium bisulfite (where the calculation was performed by using the OECD301 A guidelines annexed to EEC directive 92/69/EEC C4-A).
Finally, biodegradability according to the 92/69/EEC C4-A regulation was also assessed.

Data set [7] relates to Isochris Galbana. The data set can be described thus: Toxicity test LC50 on Isochris Galbana. The class given is cell-based.
Source text: as §8
Data set [8] has as its system Dreissena Polimorfa Larvae. The data set can be described thus: Toxicity test LC50 on Dreissena Polimorfa larvae. The settings on record: in vivo.
Source text: as §8
Data set [9] concerns Eimeria acervulina. The data set can be described thus: Coccid infection in chicken, Eimeria acervulina. The class given is in vivo. To be noted: chickens (Ross males), 250 ppm of MPB in feed, inoculated orally with 100,000 oocysts; fecal count 16 hours before killing; n=6. The procedure: as §1, §2, §3, §4, §5, §6, §7
The subject of data set [10] is Rainbow trout. The data set can be described thus: Toxicity test LC50 on fish fauna, Rainbow trout. Format: in vivo.
Source text: as §8

Marks after values point to notes of the source that are not given here.

As to `CC1(S(=O)(=O)O)CC(=O)c2ccccc2C1=O.Cc1cc(C)[nH]c(=O)n1` (stereo not drawn) [MPB, menadione dimethylpirymidinol bisulfite], in data set [1], the “Excretion of oocysts, Eimeria tenella” value is 0.44 ± 0.05^a ×10^8. The “LC50 Artemia Salina” value in data set [2] is 5 ppm. In addition, the “½ LIFE, hydrolysis” value is on record as 48 h in data set [3] (PH 6.8, in darkness) and below 3 h in data set [3] (PH 9, in darkness). The “LC50 Eurytemora Affinis” value in data set [4] amounted to 5 ppm. The “Light exp. Total Degr.” value in data set [5] is 48 h. Also, the “Light exp. ½ life” value in data set [5] is 10 h. In addition, in [6] (7 days after the beginning of the test), the “degradability compared with that of MSB” value is listed as “as much as eight times higher”. Further, the “% biodegr. OECD 301 A” value in [6] (after 7 days) is on record as 37%; in data set [6] (after 14 days), 37%; in data set [6] (after 28 days) it was 40%. The “LC50 Isochris Galbana” value in data set [7] is recorded as 0.5 ppm. Besides, in data set [8], the “LC50 Dreissena Polimorfa Larvae” value turned out to be 1 ppm. Further, the “Excretion of oocysts, Eimeria acervulina” value in [9] is given as 5.9 ± 0.8^a ×10^8. Besides, the “LC50 Rainbow trout (assessed on 96 h)” value in [10] is given as 0.4 ppm.
